# Entries after “also recorded” stand apart in the source; their conditions may differ. Where two headings read alike, the source gives them in different places.
# Assays:
# [1] = for mean AUCmetabolite/AUCparent ratio, fold higher in CYP3A5 expressors than nonexpressors: blood, after oral tacrolimus; for CLurinary (based on AUCblood) / CLurinary (based on AUCplasma): 0 to 96-hour collection; for total amount of tacrolimus excreted in urine as unchanged drug over 96 hours: oral administration
# [2] = test system: mouse mixed lymphocyte reaction; conditions: compared with tacrolimus; cited from earlier work
# CYP3A5 [3] = target: CYP3A5 (Homo sapiens, UniProt P20815); assay: Metabolic clearance by CYP3A5; conditions: compared with tacrolimus; Supplemental Figure 1
# Sequence of CYP3A5 (Homo sapiens, UniProt P20815) (P20815 whole entry, the tested form may be a part): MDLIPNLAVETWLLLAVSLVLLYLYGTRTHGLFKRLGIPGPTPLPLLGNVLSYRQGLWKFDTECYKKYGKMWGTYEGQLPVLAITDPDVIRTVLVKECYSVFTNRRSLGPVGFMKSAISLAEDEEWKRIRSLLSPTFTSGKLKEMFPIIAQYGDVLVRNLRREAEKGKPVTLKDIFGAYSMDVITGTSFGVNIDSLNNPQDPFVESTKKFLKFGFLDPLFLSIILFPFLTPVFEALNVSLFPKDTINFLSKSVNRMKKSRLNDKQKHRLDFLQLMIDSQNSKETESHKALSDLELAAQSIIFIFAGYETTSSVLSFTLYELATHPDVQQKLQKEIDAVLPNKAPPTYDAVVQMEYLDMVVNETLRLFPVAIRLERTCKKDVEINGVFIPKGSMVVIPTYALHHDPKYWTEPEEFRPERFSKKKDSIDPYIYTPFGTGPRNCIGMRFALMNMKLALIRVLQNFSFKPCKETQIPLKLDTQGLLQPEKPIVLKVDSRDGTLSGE
# [4] = isolated perfused rat kidney; cited from earlier work
# CYP3A5 [5] = conditions: cited from earlier work
# [6] = parameters: species or system human; conditions: for k(2,1) (glomerular filtration of tacrolimus) / k(3,1) (secretion from efferent arteriole to renal epithelium): derived from estimated parameters; for fub (exchangeable fraction of tacrolimus in blood during glomerular filtration): ordinary least-squares estimation; for Kp: human, kidney/blood, oral, 5 mg, Kp,kidney (apparent tissue-to-blood partitioning coefficient), empirical Bayesian estimation
# [7] = In vitro unbound fraction of tacrolimus in plasma and whole blood; format: in vitro ADME; conditions: whole blood
# [8] = male rats, tacrolimus orally for four days; cited from earlier work
# clinical = conditions: human, 5 mg; for half-life: blood, po, single oral dose 5 mg; for concentration at 96 h: whole blood, oral, Clast, blood concentration at 96 hour
compound,measurement,setting,value
"C=CCC1C=C(C)CC(C)CC(OC)C2OC(O)(C(=O)C(=O)N3CCCCC3C(=O)OC(C(C)=CC3CCC(O)C(OC)C3)C(C)C(O)CC1=O)C(C)CC2O (centres unmarked) [13-DMT, 13-O-desmethyl tacrolimus]","mean AUCmetabolite/AUCparent ratio, fold higher in CYP3A5 expressors than nonexpressors",[1],2.0 fold
"C=CCC1C=C(C)CC(C)CC(O)C2OC(O)(C(=O)C(=O)N3CCCCC3C(=O)OC(C(C)=CC3CCC(O)C(OC)C3)C(C)C(O)CC1=O)C(C)CC2OC (centres unmarked) [15-DMT, 15-O-desmethyl tacrolimus]",renal excretion in the two genotyped groups,[1]; CYP3A5 expressors vs nonexpressors,similar
same,"mean AUCmetabolite/AUCparent ratio, fold higher in CYP3A5 expressors than nonexpressors",[1],did not differ; also recorded: similar
"C=CCC1C=C(C)CC(C)CC(OC)C2OC(O)(C(=O)C(=O)N3CCCCC3C(=O)OC(C(C)=CC3CCC(O)C(O)C3)C(C)C(O)CC1=O)C(C)CC2OC (centres unmarked) [31-DMT, 31-O-desmethyl tacrolimus]","mean AUCmetabolite/AUCparent ratio, fold higher in CYP3A5 expressors than nonexpressors",[1],2.5 fold
same,immunosuppressive activity,[2],same immunosuppressive activity as tacrolimus
same,metabolic clearance by CYP3A5,CYP3A5 [3],comparable to that of tacrolimus
CCOC(=O)[C@H](CCc1ccccc1)N[C@@H](C)C(=O)N1CCC[C@H]1C(=O)O [enalapril],urinary clearance following inhibition of hydrolysis to enalaprilate by paraoxon,[4],increased
Cc1ncc2n1-c1ccc(Cl)cc1C(c1ccccc1F)=NC2 [midazolam],"hydroxylation activity, fold higher in CYP3A5*1/*3 than CYP3A5*3/*3 kidney microsomes",CYP3A5 [5],18 fold
C=CC[C@@H]1/C=C(\C)C[C@H](C)C[C@H](OC)[C@H]2O[C@@](O)(C(=O)C(=O)N3CCCC[C@H]3C(=O)O[C@H](/C(C)=C/[C@@H]3CC[C@@H](O)[C@H](OC)C3)[C@H](C)[C@@H](O)CC1=O)[C@H](C)C[C@@H]2OC [tacrolimus],ER greater than fub′,[6],~ 400 fold
same,ER (extraction ratio of tacrolimus from the efferent arteriole),[6]; CYP3A5 expressors,5.1 ± 3.0%
same,"k(0,3) (rate constant, CYP3A5-mediated intra-epithelial metabolism)",[6]; CYP3A5 expressors,0.55 ± 0.52 h⁻¹
same,"k(1,3) (back flux from renal epithelium to efferent arteriole)",[6]; CYP3A5 expressors,0.34 ± 0.05 h⁻¹
same,"k(2,3) (secretion from renal epithelium to tubular lumen)",[6]; CYP3A5 expressors,0.0009 ± 0.0005 h⁻¹
same,"k(3,2) (reabsorption from tubular fluid back to renal epithelium)",[6]; CYP3A5 expressors,0.091 ± 0.063 h⁻¹
same,"k(2,1) (glomerular filtration of tacrolimus)",[6]; CYP3A5 expressors,0.94 ± 0.76 mL/h
same,"k(3,1) (secretion from efferent arteriole to renal epithelium)",[6]; CYP3A5 expressors,2368 ± 1404 mL/h
same,fub (exchangeable fraction of tacrolimus in blood during glomerular filtration),[6]; CYP3A5 expressors,0.014 ± 0.015%
same,ER (extraction ratio of tacrolimus from the efferent arteriole),[6]; CYP3A5 nonexpressors,4.3 ± 4.7%
same,"k(1,3) (back flux from renal epithelium to efferent arteriole)",[6]; CYP3A5 nonexpressors,0.36 ± 0.39 h⁻¹
same,"k(2,3) (secretion from renal epithelium to tubular lumen)",[6]; CYP3A5 nonexpressors,0.0012 ± 0.0008 h⁻¹
same,"k(3,2) (reabsorption from tubular fluid back to renal epithelium)",[6]; CYP3A5 nonexpressors,0.106 ± 0.057 h⁻¹
same,"k(2,1) (glomerular filtration of tacrolimus)",[6]; CYP3A5 nonexpressors,0.77 ± 0.51 mL/h
same,"k(3,1) (secretion from efferent arteriole to renal epithelium)",[6]; CYP3A5 nonexpressors,1800 ± 1734 mL/h
same,fub (exchangeable fraction of tacrolimus in blood during glomerular filtration),[6]; CYP3A5 nonexpressors,0.011 ± 0.006%
same,in vivo fub′ (exchangeable fraction in blood) estimated from modeling,[6]; all subjects,0.012 ± 0.011%
same,Kp,[6]; CYP3A5 expressors,12.1 ± 0.3
same,Kp,[6]; CYP3A5 nonexpressors,23.4 ± 0.04
same,"Kp,kidney in CYP3A5 expressors as % of that calculated for nonexpressors",[6]; steady-state tissue-to-blood partitioning ratio,~50%
same,fraction unbound,[7],0.00078 ± 0.00026
same,CLurinary (based on AUCblood),[1]; CYP3A5 expressors (N=12),2.01 ± 0.57 mL/h
same,CLurinary (based on AUCplasma),[1]; CYP3A5 expressors (N=12),50.15 ± 13.67 mL/h
same,CLurinary (based on AUCblood),[1]; CYP3A5 nonexpressors (N=12),3.15 ± 1.69 mL/h
same,CLurinary (based on AUCplasma),[1]; CYP3A5 nonexpressors (N=12),97.71 ± 59.89 mL/h
same,CLurinary/eGFR (based on AUCblood),[1]; CYP3A5 expressors (N=12),0.028 ± 0.012%
same,CLurinary/eGFR (based on AUCplasma),[1]; CYP3A5 expressors (N=12),0.58 ± 0.28%
same,total amount of tacrolimus excreted in urine as unchanged drug over 96 hours,[1]; CYP3A5 expressors,271.6 ± 147.4 ng
same,CLurinary/eGFR (based on AUCblood),[1]; CYP3A5 nonexpressors (N=12),0.048 ± 0.032%
same,CLurinary/eGFR (based on AUCplasma),[1]; CYP3A5 nonexpressors (N=12),1.48 ± 1.10%
same,total amount of tacrolimus excreted in urine as unchanged drug over 96 hours,[1]; CYP3A5 nonexpressors,642.6 ± 349.6 ng
same,"mean apparent urinary tacrolimus clearance, lower in CYP3A5 expressors compared to nonexpressors",[1]; based on blood AUC,36%
same,"mean apparent urinary tacrolimus clearance, lower in CYP3A5 expressors compared to nonexpressors",[1]; based on plasma AUC,49%
same,AUC0–96 Difference (%),[1]; expressors vs nonexpressors,−35.2%
same,AUC0–inf Difference (%),[1]; expressors vs nonexpressors,−36.5%
same,CL/F Difference (%),[1]; expressors vs nonexpressors,54.8%
same,CLurinary (based on AUCblood) Difference (%),[1]; expressors vs nonexpressors,−36.2%
same,CLurinary (based on AUCplasma) Difference (%),[1]; expressors vs nonexpressors,−48.7%
same,CLurinary/eGFR (based on AUCblood) Difference (%),[1]; expressors vs nonexpressors,−41.7%
same,Clast Difference (%),[1]; expressors vs nonexpressors,−46.2%
same,"oral tacrolimus clearance (CL/F), fold higher in CYP3A5 expressors compared to nonexpressors","[1]; mean, expressors vs nonexpressors",1.6 fold
same,"Clast (blood concentration at 96 hours), fold higher in CYP3A5 nonexpressors compared to expressors",[1]; nonexpressors vs expressors,1.9 fold
same,"Kp,kid",[8],12.2
same,half-life,"clinical; t1/2, CYP3A5 expressors (N=12)",29.9 ± 4.8 h
same,half-life,"clinical; t1/2, CYP3A5 nonexpressors (N=12)",31.7 ± 4.3 h
same,concentration at 96 h,clinical; CYP3A5 expressors (N=12),0.2 ± 0.1 ng/mL
same,concentration at 96 h,clinical; CYP3A5 nonexpressors (N=12),0.4 ± 0.1 ng/mL
same,"hydroxylation activity, fold higher in CYP3A5*1/*3 than CYP3A5*3/*3 kidney microsomes",CYP3A5 [5],18 fold
